ChEMBL document CHEMBL4811217, “Peptide-based topical agents and intravenous hemostat for rapid hemostasis” (2020)
Residues, ends and D or L forms follow the SMILES beside them.

Experiments:
Blood = assay: Induction of blood clotting in chicken serum free blood corpuscles assessed as blood clotting time at 1.5 mM by hayem-method; format: functional, Gallus gallus
Plasma = assay: Induction of clotting in chicken plasma assessed as thrombin clotting time at 1.5 mM; format: functional, Gallus gallus
[1] = Induction of platelet aggregation in iv dosed Sprague-Dawley rat model of liver injury assessed as reduction in blood loss measured after 30 mins; format: functional; design: scale not given: the % may be the effect or the level left; settings: 0.5 h

## CC(C)C[C@H](NC(=O)[C@H](Cc1cnc[nH]1)NC(=O)[C@H](Cc1cnc[nH]1)NC(=O)[C@H](CCC(N)=O)NC(=O)[C@@H](N)CCC(N)=O)C(=O)NCC(=O)NCC(=O)N[C@@H](C)C(=O)N[C@@H](CCCCN)C(=O)N[C@@H](CCC(N)=O)C(=O)N[C@@H](C)C(=O)NCC(=O)N[C@@H](CC(=O)O)C(=O)N[C@H](C(=O)O)C(C)C (H-QQHHLGGAKQAGDV-OH)
Blood
  Time: 51 s
Plasma
  Time: 35 s

## CC(C)C[C@H](NC(=O)[C@@H](NC(=O)[C@@H](N)CCCNC(=N)N)[C@@H](C)O)C(=O)N[C@@H](C)C(=O)N[C@@H](Cc1ccccc1)C(=O)N[C@H](C(=O)N[C@@H](CCCNC(=N)N)C(=O)N1CCC[C@H]1C(=O)N[C@@H](CCCCN)C(=O)O)C(C)C (H-RTLAFVRPK-OH)
[1]
  Activity: 60%
